Test results: ChEMBL document CHEMBL1123125, “Sulfur-interrupted 8-amino side chain analogues of 4-methyl-5-[m-(trifluoromethyl)phenoxy]primaquine as potential antimalarial agents” (1985)

How the values were obtained:
Format in all cases: functional
Plasmodium cynomolgi [1] = assay: Cures in Plasmodium cynomolgi infected Rhesus monkeys (Macaca mulatta) at 0.1 mg/kg dose; Cured 0 of 2
Mus musculus [2] = assay: Evaluated for number of cures against Plasmodium berghei yoelii in mice (Mus musculus) at peroral dose 40 mg/kg; 0/5; conditions: route oral
Plasmodium cynomolgi [3] = assay: Number of relapses in Plasmodium cynomolgi infected Rhesus monkeys (Macaca mulatta) at 1.0 mg/kg dose
Mus musculus [4] = assay: Evaluated for the change in mean survival time over controls against Plasmodium berghei in mice (Mus musculus) at dose 40 mg/kg
Plasmodium cynomolgi [5] = assay: Relapses in Plasmodium cynomolgi infected Rhesus monkeys (Macaca mulatta) at 0.1 mg/kg dose
Mus musculus [6] = assay: Evaluated for the change in mean survival time over controls against Plasmodium berghei in mice (Mus musculus) at dose 80 mg/kg
Mus musculus [7] = assay: Evaluated for the change in mean survival time over controls against Plasmodium berghei in mice (Mus musculus) at dose 320 mg/kg
Mus musculus [8] = assay: Evaluated for number of toxic deaths against Plasmodium berghei yoelii in mice (Mus musculus) at subcutaneous dose of 40 mg/kg
Mus musculus [9] = assay: Evaluated for the change in mean survival time over controls against Plasmodium berghei in mice (Mus musculus) at dose 160 mg/kg
Mus musculus [10] = assay: Evaluated for number of cures against Plasmodium berghei yoelii in mice (Mus musculus) at peroral dose 160 mg/kg; Number of tested 5; conditions: route oral
Mus musculus [11] = assay: Evaluated for number of cures against Plasmodium berghei in mice (Mus musculus) (surviving 60 days) at dose 320 mg/kg
Mus musculus [12] = assay: Evaluated for number of cures against Plasmodium berghei yoelii in mice (Mus musculus) at subcutaneous dose 10 mg/kg; 0/15
Plasmodium cynomolgi [13] = assay: Cures against Plasmodium cynomolgi infected Rhesus monkeys (Macaca mulatta) at 1.0 mg/kg; cured 0 of 2
Mus musculus [14] = assay: Evaluated for number of cures against Plasmodium berghei yoelii in mice (Mus musculus) at subcutaneous dose 40 mg/kg; 1/15
Mus musculus [15] = assay: Evaluated for number of toxic deaths against Plasmodium berghei yoelii in rodents at subcutaneous dose of 160 mg/kg
Mus musculus [16] = assay: Evaluated for number of cures against Plasmodium berghei yoelii in rodents at subcutaneous dose 160 mg/kg; 5/15
Mus musculus [17] = assay: Evaluated for number of cures against Plasmodium berghei yoelii in rodents at peroral dose 10 mg/kg; 0/5; conditions: route oral
Mus musculus [18] = assay: Evaluated for the change in mean survival time over controls against Plasmodium berghei in mice (Mus musculus) at dose 640 mg/kg
Mus musculus [19] = assay: Evaluated for number of cures against Plasmodium berghei yoelii in rodents at peroral dose 2.5 mg/kg; 0/5; conditions: route oral
Plasmodium cynomolgi [20] = assay: Cures in Plasmodium cynomolgi infected Rhesus monkeys (Macaca mulatta) at 1.0 mg/kg dose; Cured 1 of 2
Mus musculus [21] = assay: Evaluated for number of cures against Plasmodium berghei yoelii in rodents at subcutaneous dose 2.5 mg/kg; 0/5
Mus musculus [22] = assay: Evaluated for number of cures against Plasmodium berghei yoelii in rodents at peroral dose 10 mg/kg; 2/20; conditions: route oral
Mus musculus [23] = assay: Evaluated for number of cures against Plasmodium berghei yoelii in mice (Mus musculus) at peroral dose 160 mg/kg; 19/20; conditions: route oral
Plasmodium cynomolgi [24] = assay: Number of relapses in Plasmodium cynomolgi infected Rhesus monkeys (Macaca mulatta) at 0.316 mg/kg dose
Mus musculus [25] = assay: Evaluated for the change in mean survival time over controls against Plasmodium berghei in mice (Mus musculus) at dose 20 mg/kg
Mus musculus [26] = assay: Evaluated for number of cures against Plasmodium berghei yoelii in rodents at subcutaneous dose 160 mg/kg; 8/30
Mus musculus [27] = assay: Evaluated for number of toxic deaths occurring on day 2-5 after infection with Plasmodium berghei in mice (Mus musculus) at dose 640 mg/kg
Mus musculus [28] = assay: Evaluated for number of cures against Plasmodium berghei in mice (Mus musculus) (surviving 60 days) at dose 640 mg/kg
Mus musculus [29] = assay: Evaluated for number of cures against Plasmodium berghei yoelii in rodents at peroral dose 40 mg/kg; 7/20; conditions: route oral
Plasmodium cynomolgi [30] = assay: Cures against Plasmodium cynomolgi infected Rhesus monkeys (Macaca mulatta) at 0.316 mg/kg dose; cured 0 of 2
Mus musculus [31] = assay: Evaluated for number of cures against Plasmodium berghei yoelii in rodents at subcutaneous dose 40 mg/kg; 7/30
Mus musculus [32] = assay: Evaluated for number of cures against Plasmodium berghei yoelii in rodents at subcutaneous dose 10 mg/kg; 5/30
Mus musculus [33] = assay: Evaluated for number of toxic deaths occurring on day 2-5 after infection with Plasmodium berghei in mice (Mus musculus) at dose 160 mg/kg
Mus musculus [34] = assay: Evaluated for number of toxic deaths occurring on day 2-5 after infection with Plasmodium berghei in mice (Mus musculus) at dose 320 mg/kg
Mus musculus [35] = assay: Evaluated for number of cures against Plasmodium berghei in mice (Mus musculus) (surviving 60 days) at dose 5 mg/kg
Plasmodium cynomolgi [36] = assay: Cures in Plasmodium cynomolgi infected Rhesus monkeys (Macaca mulatta) at 0.316 mg/kg dose; Cured 2 of 2
Mus musculus [37] = assay: Evaluated for number of cures against Plasmodium berghei in mice (Mus musculus) (surviving 60 days) at dose 160 mg/kg
Mus musculus [38] = assay: Evaluated for number of cures against Plasmodium berghei in mice (Mus musculus) (surviving 60 days) at dose 20 mg/kg
Mus musculus [39] = assay: Evaluated for number of cures against Plasmodium berghei in mice (Mus musculus) (surviving 60 days) at dose 80 mg/kg
Mus musculus [40] = assay: Evaluated for number of cures against Plasmodium berghei in mice (Mus musculus) (surviving 60 days) at dose 40 mg/kg
Mus musculus [41] = assay: Evaluated for number of cures against Plasmodium berghei in mice (Mus musculus) (surviving 60 days) at dose 10 mg/kg
Plasmodium cynomolgi [42] = assay: Cures in Plasmodium cynomolgi infected Rhesus monkeys (Macaca mulatta) at 1.0 mg/kg dose; Cures 2 of 2
Plasmodium cynomolgi [43] = assay: Cures in Plasmodium cynomolgi infected Rhesus monkeys (Macaca mulatta) at 0.1 mg/kg dose; Cured 0 of 1

| Compound | No. of cures (Plasmodium cynomolgi [1]) | No. of relapses (Plasmodium cynomolgi [3]) | Change in MST (Mus musculus [4]) | No. of relapses (Plasmodium cynomolgi [5]) | Change in MST (Mus musculus [6]) | Change in MST (Mus musculus [7]) | No. of deaths (Mus musculus [8]) | Change in MST (Mus musculus [9]) | No. of cures (Mus musculus [11]) | No. of deaths (Mus musculus [15]) | Change in MST (Mus musculus [18]) | No. of cures (Plasmodium cynomolgi [20]) | No. of deaths (Mus musculus [27]) | No. of cures (Mus musculus [28]) | No. of cures (Plasmodium cynomolgi [30]) | further results |
| --- | --- | --- | --- | --- | --- | --- | --- | --- | --- | --- | --- | --- | --- | --- | --- | --- |
| COc1cc(NCC(C)SCCN)c2nccc(C)c2c1Oc1cccc(C(F)(F)F)c1 (configuration not stated) | 0 | 7 | 0.5 | 7 | 1.5 | 6.5 | 1 | 4.5 | 1 | 1 | 9.7 |  |  |  |  | No. of cures (Mus musculus [2]): 0; No. of cures (Mus musculus [10]): 0; No. of cures (Mus musculus [12]): 0; No. of cures (Plasmodium cynomolgi [13]): 0; No. of cures (Mus musculus [14]): 1; No. of cures (Mus musculus [16]): 5; No. of cures (Mus musculus [17]): 0 |
| COc1cc(NC(C)CSCCN)c2nccc(C)c2c1Oc1cccc(C(F)(F)F)c1 (configuration not stated) | 0 | 18 | 2 | 8 | 6.6 | 9.6 | 2 | 6.8 | 1 | 3 | 12.3 | 1 | 1 | 2 | 0 | No. of cures (Mus musculus [19]): 0; No. of cures (Mus musculus [21]): 0; No. of cures (Mus musculus [22]): 2; No. of cures (Mus musculus [23]): 19; No. of relapses (Plasmodium cynomolgi [24]): 28; Change in MST (Mus musculus [25]): 3; No. of cures (Mus musculus [26]): 8; No. of cures (Mus musculus [29]): 7; No. of cures (Mus musculus [31]): 7; No. of cures (Mus musculus [32]): 5 |
| COc1cc(NC(C)CCCN)c2ncccc2c1 (configuration not stated) [PRIMAQUINE] | 0 |  |  |  | 9 |  |  |  |  |  |  | 1 | 5 |  | 0 | No. of deaths (Mus musculus [33]): 2; No. of deaths (Mus musculus [34]): 5 |
| COc1cc(NC(C)CCCN)c2nccc(C)c2c1Oc1cccc(C(F)(F)F)c1 (configuration not stated) |  |  |  |  |  |  |  |  | 5 |  |  |  | 4 | 1 |  | No. of cures (Mus musculus [35]): 1; No. of cures (Plasmodium cynomolgi [36]): 2; No. of cures (Mus musculus [37]): 5; No. of cures (Mus musculus [38]): 5; No. of cures (Mus musculus [39]): 5; No. of cures (Mus musculus [40]): 5; No. of cures (Mus musculus [41]): 3; No. of cures (Plasmodium cynomolgi [42]): 2; No. of cures (Plasmodium cynomolgi [43]): 0 |
